Experimental data taken from BindingDB's records for patent US20250313563 (The Broad Institute, 2025).
Values joined by “and” are separate entries in the source; they are usually repeats but may differ in a detail not shown here. Equal values may be shown once.

Experiments:
[1] = target: Glycogen synthase kinase-3 alpha (Homo sapiens, UniProt P49840); assay: TR-FRET Assay
How it was run: (§1)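 TR-FRET readout: streptavidin-d2 (40 nM in added detection mix) plus Tb-anti-pSer641 Ab (2 nM in mix). Steps were 30 min compound preincubation, kinase reaction, then EDTA stop.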

[2] = target: Glycogen synthase kinase-3 beta (Homo sapiens, UniProt P49841); assay: TR-FRET Assay
How it was run: as §1

Chain of Glycogen synthase kinase-3 alpha (P49840 whole entry): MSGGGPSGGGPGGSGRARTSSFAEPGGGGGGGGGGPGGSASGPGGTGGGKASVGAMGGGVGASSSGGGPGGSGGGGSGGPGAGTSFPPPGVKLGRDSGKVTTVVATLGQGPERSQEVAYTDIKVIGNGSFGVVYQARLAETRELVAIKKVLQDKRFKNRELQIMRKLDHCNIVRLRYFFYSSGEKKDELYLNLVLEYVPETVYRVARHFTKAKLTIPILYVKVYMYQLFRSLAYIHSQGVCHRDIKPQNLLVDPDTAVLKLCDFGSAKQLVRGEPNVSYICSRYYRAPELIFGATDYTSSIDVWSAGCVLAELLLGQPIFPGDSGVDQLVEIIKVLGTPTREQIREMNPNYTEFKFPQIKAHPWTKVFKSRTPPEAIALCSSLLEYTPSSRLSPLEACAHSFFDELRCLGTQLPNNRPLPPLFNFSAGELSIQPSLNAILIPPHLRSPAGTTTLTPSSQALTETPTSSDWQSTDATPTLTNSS
Chain of Glycogen synthase kinase-3 beta (P49841 whole entry): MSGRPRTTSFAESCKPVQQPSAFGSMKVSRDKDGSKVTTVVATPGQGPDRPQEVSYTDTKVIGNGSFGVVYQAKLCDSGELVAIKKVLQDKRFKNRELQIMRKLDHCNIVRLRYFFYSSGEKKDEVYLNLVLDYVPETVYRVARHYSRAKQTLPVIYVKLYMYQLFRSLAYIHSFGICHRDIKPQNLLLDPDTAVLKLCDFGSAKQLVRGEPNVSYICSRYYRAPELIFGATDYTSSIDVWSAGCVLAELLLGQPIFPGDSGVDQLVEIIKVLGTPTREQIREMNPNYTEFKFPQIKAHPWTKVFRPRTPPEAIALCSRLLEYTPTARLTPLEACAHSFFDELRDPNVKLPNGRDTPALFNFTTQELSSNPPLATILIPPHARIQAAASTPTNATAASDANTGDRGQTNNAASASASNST

| SMILES | IC50 [1] | IC50 [2] |
| --- | --- | --- |
| CC1(C)CC(=O)C2=C(C1)NC1=C(CN=N1)C2(C)c1cc(C(F)(F)F)ccc1F (configuration not stated) [US20250313563, Compound 810376] | < 100 nM | 100 to 1000 nM |
| CC(C)n1cc(S(=O)(=O)N2CCC3(CC2)C2=C(N=NC2)NC2=C3C(=O)CC(C)(C)C2)cn1 [US20250313563, Compound 947607] | < 100 nM | < 100 nM |
| CC[C@@]1(c2cccc(-c3ccncc3)c2)C2=C(CC(C)(C)CC2=O)NC2N=NC(C)=C21 (some centres not stated) [US20250313563, Compound 913015] | < 100 nM | < 100 nM |
| CC[C@]1(c2cccc(-c3cnc4n3CCCC4)c2)C2=CN=NC2NC2=C1C(=O)CC(C)(C)C2 (some centres not stated) [US20250313563, Compound 945618] | 1000 to 5000 nM | > 5000 nM |
| CCC1(c2cccc(-c3cc(C)nn3C)c2)C2=CN=NC2NC2=C1C(=O)CC(C)(C)C2 (configuration not stated) [US20250313563, Compound 929402] | < 100 nM | 100 to 1000 nM |
| C[C@@H]1C[C@]2(CCO1)C1=C(N=NC1)NC1=C2C(=O)CC(C)(C)C1 [US20250313563, Compound 924308] | 100 to 1000 nM | 100 to 1000 nM |
| CC1(C)CC(=O)C2=C(C1)NC1=C(CN=N1)[C@]21CO[C@H](C2CC2)C1 [US20250313563, Compound 913184] | 100 to 1000 nM | 1000 to 5000 nM |
| CC[C@@]1(c2cccc(-c3ccnn3C)c2)C2=CN=NC2NC2=C1C(=O)NC1(CCOCC1)C2 (some centres not stated) [US20250313563, Compound 948526] | 1000 to 5000 nM | > 5000 nM |
| CC1(C)CC(=O)C2=C(C1)NC1=C(CN=N1)C2(C)c1cccc(-c2ccncc2)c1 (configuration not stated) [US20250313563, Compound 790730] | < 100 nM | 100 to 1000 nM |
| Cc1cnccc1[C@H]1CC[C@]2(CC1)C1=C(N=NC1)NC1=C2C(=O)CC(C)(C)C1 [US20250313563, Compound 949318] | 100 to 1000 nM | 100 to 1000 nM |
| CC[C@]1(c2cccc(-c3ccncc3)c2)C2=CN=NC2NC2=C1C(=O)C[C@@H](C)C2 (some centres not stated) [US20250313563, Compound 874317] | < 100 nM | < 100 nM |
| CCC1(c2cccc(C(F)(F)F)c2)C2=CN=NC2NC2=C1C(=O)CC1(CCCC1)C2 (configuration not stated) [US20250313563, Compound 790617] | < 100 nM | < 100 nM |
| CCC1(c2cccc(C(F)(F)F)c2)C2=CN=NC2NC2=C1C(=O)NCC2C (configuration not stated) [US20250313563, Compound 919318] | < 100 nM | 100 to 1000 nM |
| CCC1(c2cccc(-n3ccnc3)c2)C2=CN=NC2NC2=C1C(=O)CC(C)(C)C2 (configuration not stated) [US20250313563, Compound 854926] | < 100 nM | 100 to 1000 nM |
| CC1(C)CC(=O)C2=C(NC3N=NC=C3C23CCOCC3)[C@H]1F (some centres not stated) [US20250313563, Compound 883833] | 100 to 1000 nM | 1000 to 5000 nM |
| CCC1(c2cccc(N(C)C3CC3)c2)C2=CN=NC2NC2=C1C(=O)CC(C)(C)C2 (configuration not stated) [US20250313563, Compound 945466] | 100 to 1000 nM | 1000 to 5000 nM |
| O=C1CC2(CCCCC2)CC2=C1C1(CCOCC1)C1=C(N=NC1)N2 [US20250313563, Compound 893307] | < 100 nM | 100 to 1000 nM |
| CCC1(c2cccc(C(F)(F)F)c2)C2=C(N=NC2)NC2=C1C(=O)NC2(C)C (configuration not stated) [US20250313563, Compound 912104] | < 100 nM | 100 to 1000 nM |
| COc1cccc(S(=O)(=O)N2CC3(C2)C2=C(N=NC2)NC2=C3C(=O)CC(C)(C)C2)c1 [US20250313563, Compound 918276] | < 100 nM | < 100 nM |
| CCC1(c2cccc(-c3cnn(C)c3)c2)C2=C(CC(C)(C)CC2=O)NC2N=NC(C)=C21 (configuration not stated) [US20250313563, Compound 884000] | < 100 nM | 100 to 1000 nM |
| CC1(C)CC(=O)C2=C(C1)NC1N=NC(CCC(F)(F)F)=C1[C@]2(C)c1ccccc1 (some centres not stated) [US20250313563, Compound 856949] | 100 to 1000 nM | < 100 nM |
| CC[C@@]1(c2cccc(-c3cc(C(C)C)nn3C)c2)C2=CN=NC2NC2=C1C(=O)NC(C)(C)C2 (some centres not stated) [US20250313563, Compound 951842] | 100 to 1000 nM | 1000 to 5000 nM |
| CC[C@]1(c2cccc(C(F)(F)F)c2)C2=CN=NC2NC2=C1C(=O)NC1(CCC1)C2 (some centres not stated) [US20250313563, Compound 914308] | < 100 nM and 100 to 1000 nM | < 100 nM and 1000 to 5000 nM |

| SMILES | IC50 [1] | IC50 [2] |
| --- | --- | --- |
| CC[C@]1(c2cccc(-c3ccncc3C)c2)C2=C(CC(C)(C)CC2=O)NC2N=NC(C(F)(F)F)=C21 (some centres not stated) [US20250313563, Compound 947324] | < 100 nM | < 100 nM |
| CC[C@]1(c2cccc(-c3cnn(C)c3)c2)C2=C(CC(C)(C)NC2=O)NC2N=NC(C)=C21 (some centres not stated) [US20250313563, Compound 945611] | > 5000 nM | > 5000 nM |
| CC[C@@]1(c2cccc(N3C[C@H](C)[C@@H](C)C3)c2)C2=CN=NC2NC2=C1C(=O)CC(C)(C)C2 (some centres not stated) [US20250313563, Compound 924520] | > 5000 nM | > 5000 nM |
| CC[C@@]1(c2cccc(S(=O)(=O)C3CC3)c2)C2=CN=NC2NC2=C1C(=O)N(C)C(C)(C)C2 (some centres not stated) [US20250313563, Compound 949177] | < 100 nM and 100 to 1000 nM | < 100 nM and 1000 to 5000 nM |
| CC[C@]1(c2cccc(N3C[C@H](C)[C@@H](C)C3)c2)C2=CN=NC2NC2=C1C(=O)CC(C)(C)C2 (some centres not stated) [US20250313563, Compound 924312] | 100 to 1000 nM | 1000 to 5000 nM |
| CC[C@H]1C[C@@]2(CCO1)C1=C(N=NC1)NC1=C2C(=O)CC(C)(C)C1 [US20250313563, Compound 924311] | 100 to 1000 nM | 1000 to 5000 nM |
| CCC1(c2cccc(-c3cnn(C)c3C)c2)C2=C(CC(C)(C)NC2=O)NC2N=NC(C(F)(F)F)=C21 (configuration not stated) [US20250313563, Compound 947403] | < 100 nM | < 100 nM and 100 to 1000 nM |
| CCC1(c2cccc(-c3ccncc3C)c2)C2=C(CC(C)(C)CC2=O)NC2N=NC(C)=C21 (configuration not stated) [US20250313563, Compound 883991] | < 100 nM | < 100 nM |
| CC[C@]1(c2cccc(C3=C4CC=C(Cl)C=C4N=CC3)c2)C2=CN=NC2NC2=C1C(=O)NC(C)(C)C2 (some centres not stated) [US20250313563, Compound 948362] | > 5000 nM | > 5000 nM |
| CC[C@]1(c2cccc(Oc3ncccn3)c2)C2=CN=NC2NC2=C1C(=O)NC(C)(C)C2 (some centres not stated) [US20250313563, Compound 949335] | > 5000 nM | > 5000 nM |
| Cn1ccc(S(=O)(=O)N2CCC3(CC2)C2=C(N=NC2)NC2=C3C(=O)CC(C)(C)C2)n1 [US20250313563, Compound 901471] | < 100 nM and 100 to 1000 nM | < 100 nM and 1000 to 5000 nM |
| CC[C@]1(c2cccc(Oc3ncccn3)c2)C2=C(CC(C)(C)NC2=O)NC2N=NC(F)=C21 (some centres not stated) [US20250313563, Compound 951949] | < 100 nM and 100 to 1000 nM | 100 to 1000 nM and > 5000 nM |
| Cc1ccc(S(=O)(=O)N2CCC3(CC2)C2=C(N=NC2)NC2=C3C(=O)CC(C)(C)C2)cn1 [US20250313563, Compound 947482] | < 100 nM | < 100 nM |
| CC1(C)CC(=O)C2=C(C1)NC1=C(CN=N1)C21CN(Cc2ccccc2)C1 [US20250313563, Compound 929436] | > 5000 nM | > 5000 nM |
| CC1CCC(CC(=O)N2CC3(C2)CC2(CO3)C3=C(N=NC3)NC3=C2C(=O)CC(C)(C)C3)C1 (configuration not stated) [US20250313563, Compound 947269] | < 100 nM and 100 to 1000 nM | < 100 nM and 100 to 1000 nM |
| CCC1(c2cc(N(C)C(C)=O)ccc2F)C2=CN=NC2NC2=C1C(=O)CC(C)(C)C2 (configuration not stated) [US20250313563, Compound 913124] | 100 to 1000 nM | 100 to 1000 nM |
| CC[C@]1(c2cccc(C(F)(F)F)c2)C2=CN=NC2NC2=C1C(=O)C[C@]1(CCNC1=O)C2 (some centres not stated) [US20250313563, Compound 950333] | < 100 nM | 100 to 1000 nM |
| CC1(C)CC(=O)C2=C(C1)NC1N=NC=C1C21CCCN(S(=O)(=O)c2ccccc2)CC1 (configuration not stated) [US20250313563, Compound 889578] | < 100 nM | < 100 nM |
| CC[C@@]1(c2cccc(C(C)C)c2)C2=CN=NC2NC2=C1C(=O)NC(C)(C)C2 (some centres not stated) [US20250313563, Compound 949752] | > 5000 nM | > 5000 nM |
| CC[C@]1(c2cccc(C(F)(F)F)c2)C2=CN=NC2NC2=C1C(=O)N(c1ccsc1)CC2 (some centres not stated) [US20250313563, Compound 952630] | < 100 nM | 100 to 1000 nM |
| CC[C@]1(c2ccccc2)C2=CN=NC2NC2=C1C(=O)CC1(CC1)C2 (some centres not stated) [US20250313563, Compound 790615] | < 100 nM | 100 to 1000 nM |
| CC[C@@]1(c2cccc(N3CCOc4ccccc43)c2)C2=CN=NC2NC2=C1C(=O)CC(C)(C)C2 (some centres not stated) [US20250313563, Compound 932655] | < 100 nM | < 100 nM |
| CC1(C)CC(=O)C2=C(C1)NC1=C(CN=N1)C21CCN(S(=O)(=O)c2ccc(F)c(F)c2)CC1 [US20250313563, Compound 948119] | < 100 nM | < 100 nM |
